Active and inactive are the calls of the source. The rule behind the calls is not given here.
Tests used:
[1] = system: A549; assay: Cytotoxicity against human A549 cells by MTT assay; assay type: functional, cell-based
[2] = system: HepG2; assay: Cytotoxicity against human HepG2 cells by MTT assay; assay type: functional, cell-based
[3] = Cytotoxicity against human PANC1 cells by MTT assay; assay type: functional, cell-based; details: PANC-1
[4] = system: U-251; assay: Cytotoxicity against human U251 cells by MTT assay; assay type: functional, cell-based
[5] = system: HepG2; assay: Induction of apoptosis in human HepG2 cells at […] to 1.25 uM after 48 hrs by annexin V/propidium iodide staining-based flow cytometric analysis relative to control; assay type: functional, cell-based
[6] = system: HepG2; assay: Induction of apoptosis in human HepG2 cells assessed as ratio of Bcl2/Bax at 0.3125 uM after 72 hrs by western blot analysis; assay type: functional
[7] = system: HepG2; assay: Induction of apoptosis in human HepG2 cells assessed as ratio of Bcl2/Bax at 0.625 uM after 72 hrs by western blot analysis; assay type: functional
[8] = system: HepG2; assay: Induction of apoptosis in human HepG2 cells assessed as ratio of Bcl2/Bax at 1.25 uM after 72 hrs by western blot analysis; assay type: functional
[9] = system: HepG2; assay: Cell cycle arrest in human HepG2 cells at 0.3125 to 1.25 uM by propidium iodide staining based flow cytometric analysis; assay type: functional; details: TDE = time-dependent effect
[10] = system: HepG2; assay: Cell cycle arrest in human HepG2 cells after 24 hrs by propidium iodide staining based flow cytometric analysis; assay type: functional
[11] = system: HepG2; assay: Cell cycle arrest in human HepG2 cells assessed as accumulation at S phase at 0.3125 to 1.25 uM by propidium iodide staining based flow cytometric analysis; assay type: functional

Row | Compound | IC50 [1] [µM] | IC50 [2] [µM] | IC50 [3] [µM] | IC50 [4] [µM] | Activity [5] | Activity [2] | Ratio [6] | Ratio [7] | Ratio [8] | Activity [9] | Activity [10] | Activity [11]
1 | CC(C)=CCC/C(C)=C/Cc1c(O)c(CC=C(C)C)c2c(c1O)C(=O)C1=C[C@@H]3C[C@@H]4C(C)(C)O[C@@](C/C=C(/C)C(=O)OCCCCN5CCOCC5)(C3=O)[C@@]14O2 | 3.17 | 14.3 | 18.6 | 21.6 | – | – | – | – | – | – | – | –
2 | CC(C)=CCC/C(C)=C/Cc1c(O)c(CC=C(C)C)c2c(c1O)C(=O)C1=C[C@@H]3C[C@@H]4C(C)(C)O[C@@](C/C=C(/C)C(=O)OCCCN5CCN(C)CC5)(C3=O)[C@@]14O2 | 1.65 | 0.98 | 0.45 | 1.13 | Active | Dose-dependent effect | 0.598 | 0.478 | 0.251 | tde | Dose-dependent effect | Active
3 | CC(C)=CCC/C(C)=C/Cc1c(O)c(CC=C(C)C)c2c(c1O)C(=O)C1=C[C@H]3C[C@H]4C(C)(C)O[C@](C/C=C(/C)C(=O)OCCCN5CCN(CCO)CC5)(C3=O)[C@]14O2 | 1.51 | 2.75 | 2.52 | 1.18 | – | – | – | – | – | – | – | –
4 | CC(C)=CCC/C(C)=C/Cc1c(O)c(CC=C(C)C)c2c(c1O)C(=O)C1=C[C@@H]3C[C@H]4C(C)(C)O[C@@](C/C=C(/C)C(=O)OCCCCN5CCN(CCO)CC5)(C3=O)[C@@]14O2 | 9.53 | 0.57 | 0.79 | 1.46 | – | – | – | – | – | – | – | –
5 | CCN(CC)CCCCOC(=O)/C(C)=C\C[C@]12OC(C)(C)[C@@H]3C[C@H](C=C4C(=O)c5c(O)c(C/C=C(\C)CCC=C(C)C)c(O)c(CC=C(C)C)c5O[C@@]431)C2=O | 3.18 | 2.41 | 1.84 | 4.62 | – | – | – | – | – | – | – | –
6 | CC(C)=CCC/C(C)=C/Cc1c(O)c(CC=C(C)C)c2c(c1O)C(=O)C1=C[C@H]3C[C@H]4C(C)(C)O[C@](C/C=C(/C)C(=O)OCCCN5CCOCC5)(C3=O)[C@]14O2 | 1.3 | 5.79 | 2.36 | 3.31 | – | – | – | – | – | – | – | –
7 | CC(C)=CCC/C(C)=C/Cc1c(O)c(CC=C(C)C)c2c(c1O)C(=O)C1=C[C@H]3C[C@H]4C(C)(C)O[C@](C/C=C(/C)C(=O)OCCCN5CCCCC5)(C3=O)[C@]14O2 | 2.54 | 3.59 | 4.66 | 8.87 | – | – | – | – | – | – | – | –
8 | CC(C)=CCC/C(C)=C/Cc1c(O)c(CC=C(C)C)c2c(c1O)C(=O)C1=C[C@@H]3C[C@@H]4C(C)(C)O[C@@](C/C=C(/C)C(=O)OCCCCN5CCCCC5)(C3=O)[C@@]14O2 | 3.43 | 3.92 | 4.43 | 2.78 | – | – | – | – | – | – | – | –
9 | CC(C)=CCC/C(C)=C/Cc1c(O)c(CC=C(C)C)c2c(c1O)C(=O)C1=C[C@H]3C[C@H]4C(C)(C)O[C@](C/C=C(/C)C(=O)OCCN5CCCCC5)(C3=O)[C@]14O2 | 1.55 | 0.97 | 1.89 | 4.93 | – | – | – | – | – | – | – | –
10 | CC(C)=CCC/C(C)=C/Cc1c(O)c(CC=C(C)C)c2c(c1O)C(=O)C1=C[C@@H]3C[C@H]4C(C)(C)O[C@@](C/C=C(/C)C(=O)OCCN5CCN(CCO)CC5)(C3=O)[C@@]14O2 | 2.44 | 3.87 | 2.51 | 3.82 | – | – | – | – | – | – | – | –
11 | CCN(CC)CCCOC(=O)/C(C)=C\C[C@@]12OC(C)(C)[C@H]3C[C@@H](C=C4C(=O)c5c(O)c(C/C=C(\C)CCC=C(C)C)c(O)c(CC=C(C)C)c5O[C@]431)C2=O | 2.94 | 2.64 | 2.85 | 2.05 | – | – | – | – | – | – | – | –
12 | CC(C)=CCC/C(C)=C/Cc1c(O)c(CC=C(C)C)c2c(c1O)C(=O)C1=C[C@@H]3C[C@@H]4C(C)(C)O[C@@](C/C=C(/C)C(=O)OCCCCN5CCN(C)CC5)(C3=O)[C@@]14O2 | 3.23 | 10.8 | 7.57 | 17.5 | – | – | – | – | – | – | – | –
13 | CC(C)=CCC/C(C)=C/Cc1c(O)c(CC=C(C)C)c2c(c1O)C(=O)C1=C[C@@H]3C[C@@H]4C(C)(C)O[C@@](C/C=C(/C)C(=O)OCCN5CCN(C)CC5)(C3=O)[C@@]14O2 | 1.61 | 2.83 | 2.61 | 3.45 | – | – | – | – | – | – | – | –
14 | CC(C)=CCC/C(C)=C/Cc1c(O)c(CC=C(C)C)c2c(c1O)C(=O)C1=C[C@H]3C[C@H]4C(C)(C)O[C@](C/C=C(/C)C(=O)OCCN5CCOCC5)(C3=O)[C@]14O2 | 4.27 | 6.36 | 1.89 | 4.93 | – | – | – | – | – | – | – | –
15 | CC(C)=CCC/C(C)=C/Cc1c(O)c(CC=C(C)C)c2c(c1O)C(=O)C1=C[C@@H]3C[C@H]4C(C)(C)O[C@@](C/C=C(/C)C(=O)O)(C3=O)[C@@]14O2 [GAMBOGENIC ACID] | 3.49 | 3.23 | 4.16 | 3.22 | – | – | – | – | – | – | – | –
16 | CCN(CC)CCOC(=O)/C(C)=C\C[C@@]12OC(C)(C)[C@H]3C[C@@H](C=C4C(=O)c5c(O)c(C/C=C(\C)CCC=C(C)C)c(O)c(CC=C(C)C)c5O[C@]431)C2=O | 1.41 | 1.95 | 2.86 | 2.65 | – | – | – | – | – | – | – | –
